Data on three compounds can be found in publication PMC7451048 (Drug metabolism letters, 2019).

The conditions of data set [1]: ref [14], [15]; cited from earlier work.
The target in data set [2] is T1, OATP2B1 (Homo sapiens, UniProt O94956).
T1 sequence (O94956 1-709): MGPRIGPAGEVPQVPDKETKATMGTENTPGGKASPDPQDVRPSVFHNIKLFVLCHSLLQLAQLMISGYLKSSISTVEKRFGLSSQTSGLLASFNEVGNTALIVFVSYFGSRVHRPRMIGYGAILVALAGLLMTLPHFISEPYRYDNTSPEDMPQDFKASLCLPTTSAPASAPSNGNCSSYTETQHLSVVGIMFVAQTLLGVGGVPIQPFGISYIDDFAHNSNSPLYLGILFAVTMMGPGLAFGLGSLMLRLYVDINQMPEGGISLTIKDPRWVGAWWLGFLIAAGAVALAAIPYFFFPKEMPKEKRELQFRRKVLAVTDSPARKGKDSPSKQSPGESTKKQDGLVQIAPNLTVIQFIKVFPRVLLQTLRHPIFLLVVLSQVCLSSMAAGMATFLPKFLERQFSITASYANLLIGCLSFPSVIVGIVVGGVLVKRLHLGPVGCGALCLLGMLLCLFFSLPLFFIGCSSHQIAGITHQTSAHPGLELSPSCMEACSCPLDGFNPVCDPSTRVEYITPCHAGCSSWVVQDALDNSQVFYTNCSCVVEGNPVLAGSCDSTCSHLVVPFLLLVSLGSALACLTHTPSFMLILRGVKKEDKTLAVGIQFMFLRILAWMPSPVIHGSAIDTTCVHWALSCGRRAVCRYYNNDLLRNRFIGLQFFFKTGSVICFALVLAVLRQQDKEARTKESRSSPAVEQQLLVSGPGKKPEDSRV
The settings on record: 3 min; for Inhibition of cellular uptake by RIF, OATP2B1-overexpressing cells: 20 μM RIF, BUP 5 μM, OHB 30 μM, TB 20 μM, EB 100 μM; for Apparent Vmax / Km: net cellular uptake, HEK/OATP2B1-overexpressing cells, mean ± SD; for Km: read-out: Apparent Km.

For data set [3], the target named is T1, OATP2B1.
The target of a further data set is T2, OATP1B3 (Homo sapiens, UniProt Q9NPD5).
T2 sequence (Q9NPD5 1-702): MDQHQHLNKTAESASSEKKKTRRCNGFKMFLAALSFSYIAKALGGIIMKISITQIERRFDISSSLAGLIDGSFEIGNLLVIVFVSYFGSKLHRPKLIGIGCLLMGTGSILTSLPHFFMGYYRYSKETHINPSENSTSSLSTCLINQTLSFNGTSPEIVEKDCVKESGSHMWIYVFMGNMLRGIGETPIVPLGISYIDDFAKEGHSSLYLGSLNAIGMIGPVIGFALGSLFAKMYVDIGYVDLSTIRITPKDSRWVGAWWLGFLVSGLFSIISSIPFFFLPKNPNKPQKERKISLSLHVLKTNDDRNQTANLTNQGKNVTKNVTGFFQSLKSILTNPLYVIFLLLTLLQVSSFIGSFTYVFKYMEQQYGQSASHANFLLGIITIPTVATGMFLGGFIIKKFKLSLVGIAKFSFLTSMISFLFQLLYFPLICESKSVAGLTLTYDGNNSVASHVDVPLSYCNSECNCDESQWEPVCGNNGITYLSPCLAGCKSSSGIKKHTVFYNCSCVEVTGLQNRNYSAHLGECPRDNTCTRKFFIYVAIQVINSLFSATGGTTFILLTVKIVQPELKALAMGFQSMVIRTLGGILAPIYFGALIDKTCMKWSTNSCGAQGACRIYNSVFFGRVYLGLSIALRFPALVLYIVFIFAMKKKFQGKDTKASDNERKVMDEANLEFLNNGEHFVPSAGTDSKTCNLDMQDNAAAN
The settings on record: 3 min; for Inhibition of cellular uptake by RIF, OATP1B3-overexpressing cells: 20 μM RIF, BUP 5 μM, OHB 30 μM, TB 10 μM, EB 5 μM; for Apparent Vmax / Km: net cellular uptake, CHO/OATP1B3-overexpressing cells, mean ± SD; for Km: read-out: Apparent Km.

For the next data set, the target named is T3, OATP4A1 (Homo sapiens, UniProt Q96BD0).
T3 sequence (Q96BD0 1-722): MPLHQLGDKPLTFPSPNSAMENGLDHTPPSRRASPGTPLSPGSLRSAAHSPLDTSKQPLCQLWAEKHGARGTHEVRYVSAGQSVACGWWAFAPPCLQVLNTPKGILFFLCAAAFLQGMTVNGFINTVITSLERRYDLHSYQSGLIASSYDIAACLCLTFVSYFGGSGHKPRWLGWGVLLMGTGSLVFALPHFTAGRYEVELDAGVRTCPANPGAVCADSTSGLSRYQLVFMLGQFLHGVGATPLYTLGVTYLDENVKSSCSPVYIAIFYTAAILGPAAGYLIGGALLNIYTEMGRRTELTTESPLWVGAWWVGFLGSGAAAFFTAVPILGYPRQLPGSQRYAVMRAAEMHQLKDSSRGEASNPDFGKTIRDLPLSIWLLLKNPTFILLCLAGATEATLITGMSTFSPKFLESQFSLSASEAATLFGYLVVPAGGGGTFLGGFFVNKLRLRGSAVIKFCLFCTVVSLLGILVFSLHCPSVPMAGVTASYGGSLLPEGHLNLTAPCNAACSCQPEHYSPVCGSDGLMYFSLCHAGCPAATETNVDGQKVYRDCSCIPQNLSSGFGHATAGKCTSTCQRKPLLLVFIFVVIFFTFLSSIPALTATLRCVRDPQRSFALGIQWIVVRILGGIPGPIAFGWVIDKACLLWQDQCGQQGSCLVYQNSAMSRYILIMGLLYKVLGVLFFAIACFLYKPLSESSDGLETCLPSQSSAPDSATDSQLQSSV
Briefly: Cellular uptake assay, HEK/OATP4A1 vs HEK empty vector cells.

For data set [4] the following is noted: higher than BUP; ref [10], [13], [16], [17]; cited from earlier work.
The conditions of data set [5]: co-administration of clopidogrel and ticlopidine; ref [25]; cited from earlier work.

Take `CC(NC(C)(C)C)C(O)c1cccc(Cl)c1` (stereo not drawn) [EB, Erythrohydrobupropion]: in data set [1], the “Pharmacological activity relative to BUP” value is reported as 20%. In addition, on OATP2B1 [2], the “Inhibition of cellular uptake by RIF, OATP2B1-overexpressing cells” value (from here on “Inhibition … OATP2B1-overexpressing cells”) is reported as “no statistically significant differences”; the “Apparent Vmax” value is 1752±192 pmol/mg protein/min; the Km – broadly, the substrate concentration at which the rate is half of its maximum – is 192 ± 35 µM. The “Substrate of OATP2B1 (conclusion)” value at OATP2B1 [3] is given as “not substrates”. Further, at OATP1B3, the “Inhibition of cellular uptake by RIF, OATP1B3-overexpressing cells” value (“Inhibition … OATP1B3-overexpressing cells” below) was “no statistically significant differences”; the “Apparent Vmax” value was found to be 1026±37 pmol/mg protein/min; the Michaelis-Menten constant (Km) was 14 ± 2 µM. Besides, the “Substrate of OATP4A1 (conclusion)” value at OATP4A1 was “not substrates”.

For the compound `C[C@H]1NC(C)(C)CO[C@]1(O)c1cccc(Cl)c1` [OHB, Hydroxybupropion], in data set [1], the “Pharmacological activity relative to BUP” value was 50–100%. At OATP2B1 [2], the “Inhibition … OATP2B1-overexpressing cells” value was “no statistically significant differences”; the “Apparent Vmax” value came to 1641±98 pmol/mg protein/min; the Km was 74 ± 12 µM. For the same compound, the “Substrate of OATP2B1 (conclusion)” value at OATP2B1 [3] is “not substrates”. Moreover, at OATP1B3, the “Inhibition … OATP1B3-overexpressing cells” value is given as “no statistically significant differences”; the “Apparent Vmax” value amounted to 1258±86 pmol/mg protein/min; the Km came out at 76 ± 14 µM. Also, the “Circulating concentration relative to the parent drug” value in data set [4] is 3 – 30 fold. Besides, the “Decrease in AUC” value in data set [5] is listed as 60–89%. Further, the “Substrate of OATP4A1 (conclusion)” value on OATP4A1 was “not substrates”.

`C[C@H](NC(C)(C)C)[C@@H](O)c1cccc(Cl)c1` [TB, Threohydrobupropion]: in data set [1], the “Pharmacological activity relative to BUP” value is recorded as 20%. Further, at OATP2B1 [2], the “Inhibition … OATP2B1-overexpressing cells” value is “no statistically significant differences”; the “Apparent Vmax” value was 1368±72 pmol/mg protein/min; the Km was 53 ± 9 µM. Further, the “Substrate of OATP2B1 (conclusion)” value at OATP2B1 [3] is recorded as “not substrates”. Besides, at OATP1B3, the “Inhibition … OATP1B3-overexpressing cells” value was “no statistically significant differences”; the “Apparent Vmax” value amounted to 2536±97 pmol/mg protein/min; the Km was determined as 21 ± 3 µM. The “Circulating concentration relative to the parent drug” value in data set [4] was 3 – 30 fold. Besides, on OATP4A1, the “Substrate of OATP4A1 (conclusion)” value is “not substrates”.
